# Results from PubChem BioAssay (NCI).
#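 Compound exposure: 48 hours, 5 concentrations, 96-well plates. The concentration for 50% growth inhibition is given as GI50. The concentration for full growth arrest is given as TGI.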
# How the values were obtained:
# Assay in all cases: NCI-60 cell line screen, 48 h
# EKVX NSCLC = system: EKVX NSCLC
# HOP-92 NSCLC = system: HOP-92 NSCLC
# HCT-15 colon = system: HCT-15 colon
# HS 578T breast = system: HS 578T breast
# SNB-75 CNS = system: SNB-75 CNS
# SK-MEL-5 melanoma = system: SK-MEL-5 melanoma
# HT29 colon = system: HT29 colon
# CCRF-CEM leukemia = system: CCRF-CEM leukemia
# MCF7 breast = system: MCF7 breast
# SK-MEL-2 melanoma = system: SK-MEL-2 melanoma
# UACC-62 melanoma = system: UACC-62 melanoma
# UO-31 renal = system: UO-31 renal
# SN12C renal = system: SN12C renal
# OVCAR-3 ovarian = system: OVCAR-3 ovarian
# HOP-62 NSCLC = system: HOP-62 NSCLC
# OVCAR-4 ovarian = system: OVCAR-4 ovarian
# HCC-2998 colon = system: HCC-2998 colon
# A498 renal = system: A498 renal
# UACC-257 melanoma = system: UACC-257 melanoma
# NCI-H226 lung = system: NCI-H226 lung
# 786-0 renal = system: 786-0 renal
# DU-145 prostate = system: DU-145 prostate
# OVCAR-5 ovarian = system: OVCAR-5 ovarian
# HL-60(TB) leukemia = system: HL-60(TB) leukemia
# MALME-3M melanoma = system: MALME-3M melanoma
# MDA-MB-231 breast = system: MDA-MB-231 breast
# MDA-MB-435 = system: MDA-MB-435
# NCI-H460 lung = system: NCI-H460 lung
# LOX IMVI melanoma = system: LOX IMVI melanoma
# SNB-19 CNS = system: SNB-19 CNS
# NCI-H522 lung = system: NCI-H522 lung
# M14 melanoma = system: M14 melanoma
# SF-539 CNS = system: SF-539 CNS
# TK-10 renal = system: TK-10 renal
# RXF 393 renal = system: RXF 393 renal
# BT-549 breast = system: BT-549 breast
# SF-295 CNS = system: SF-295 CNS
# A549 NSCLC = system: A549 NSCLC
# K-562 leukemia = system: K-562 leukemia
# IGROV1 ovarian = system: IGROV1 ovarian
# SK-MEL-28 melanoma = system: SK-MEL-28 melanoma
# NCI-H23 lung = system: NCI-H23 lung
# HCT-116 colon = system: HCT-116 colon
# COLO 205 colon = system: COLO 205 colon
# SW-620 colon = system: SW-620 colon
# ACHN renal = system: ACHN renal
# SF-268 CNS = system: SF-268 CNS
# KM12 colon = system: KM12 colon
# CAKI-1 renal = system: CAKI-1 renal
# PC-3 prostate = system: PC-3 prostate
# U251 CNS = system: U251 CNS
# OVCAR-8 ovarian = system: OVCAR-8 ovarian
# NCI/ADR-RES ovarian = system: NCI/ADR-RES ovarian
# SK-OV-3 ovarian = system: SK-OV-3 ovarian
# RPMI-8226 leukemia = system: RPMI-8226 leukemia
structure (smiles),measurement,setting,value
CNCCCNc1nc2ccccc2c2c(=O)c3cc(F)ccc3sc12,GI50,EKVX NSCLC,1550 nM
same,TGI,EKVX NSCLC,2940 nM
same,GI50,HOP-92 NSCLC,1020 nM
same,TGI,HOP-92 NSCLC,2420 nM
same,GI50,HCT-15 colon,1420 nM
same,TGI,HCT-15 colon,2760 nM
same,GI50,HS 578T breast,1450 nM
same,TGI,HS 578T breast,3110 nM
same,GI50,SNB-75 CNS,1410 nM
same,TGI,SNB-75 CNS,2760 nM
same,GI50,SK-MEL-5 melanoma,1690 nM
same,TGI,SK-MEL-5 melanoma,3070 nM
same,GI50,HT29 colon,1650 nM
same,TGI,HT29 colon,3450 nM
same,GI50,CCRF-CEM leukemia,1800 nM
same,TGI,CCRF-CEM leukemia,4340 nM
same,GI50,MCF7 breast,1410 nM
same,TGI,MCF7 breast,2950 nM
same,GI50,SK-MEL-2 melanoma,1940 nM
same,TGI,SK-MEL-2 melanoma,3650 nM
same,GI50,UACC-62 melanoma,1760 nM
same,TGI,UACC-62 melanoma,3170 nM
same,GI50,UO-31 renal,1310 nM
same,TGI,UO-31 renal,2580 nM
same,GI50,SN12C renal,1610 nM
same,TGI,SN12C renal,3050 nM
same,GI50,OVCAR-3 ovarian,1560 nM
same,TGI,OVCAR-3 ovarian,2950 nM
same,GI50,HOP-62 NSCLC,1500 nM
same,TGI,HOP-62 NSCLC,3230 nM
same,GI50,OVCAR-4 ovarian,1690 nM
same,TGI,OVCAR-4 ovarian,3250 nM
same,GI50,HCC-2998 colon,1680 nM
same,TGI,HCC-2998 colon,3290 nM
same,GI50,A498 renal,1350 nM
same,TGI,A498 renal,2700 nM
same,GI50,UACC-257 melanoma,1920 nM
same,TGI,UACC-257 melanoma,3740 nM
same,GI50,NCI-H226 lung,1720 nM
same,TGI,NCI-H226 lung,3280 nM
same,GI50,786-0 renal,1440 nM
same,TGI,786-0 renal,2870 nM
same,GI50,DU-145 prostate,1660 nM
same,TGI,DU-145 prostate,3030 nM
same,GI50,OVCAR-5 ovarian,1620 nM
same,TGI,OVCAR-5 ovarian,3030 nM
same,GI50,HL-60(TB) leukemia,1810 nM
same,TGI,HL-60(TB) leukemia,3690 nM
same,GI50,MALME-3M melanoma,1550 nM
same,TGI,MALME-3M melanoma,3010 nM
same,GI50,MDA-MB-231 breast,1330 nM
same,TGI,MDA-MB-231 breast,2700 nM
same,GI50,MDA-MB-435,1590 nM
same,TGI,MDA-MB-435,2940 nM
same,GI50,NCI-H460 lung,1380 nM
same,TGI,NCI-H460 lung,2670 nM
same,GI50,LOX IMVI melanoma,1470 nM
same,TGI,LOX IMVI melanoma,2800 nM
same,GI50,SNB-19 CNS,1650 nM
same,TGI,SNB-19 CNS,3110 nM
same,GI50,NCI-H522 lung,1860 nM
same,TGI,NCI-H522 lung,3730 nM
same,GI50,M14 melanoma,1720 nM
same,TGI,M14 melanoma,3220 nM
same,GI50,SF-539 CNS,1740 nM
same,TGI,SF-539 CNS,3160 nM
same,GI50,TK-10 renal,1800 nM
same,TGI,TK-10 renal,3410 nM
same,GI50,RXF 393 renal,1340 nM
same,TGI,RXF 393 renal,2750 nM
same,GI50,BT-549 breast,1790 nM
same,TGI,BT-549 breast,3320 nM
same,GI50,SF-295 CNS,1810 nM
same,TGI,SF-295 CNS,3230 nM
same,GI50,A549 NSCLC,1660 nM
same,TGI,A549 NSCLC,3610 nM
same,GI50,K-562 leukemia,1900 nM
same,TGI,K-562 leukemia,5080 nM
same,GI50,IGROV1 ovarian,1370 nM
same,TGI,IGROV1 ovarian,2760 nM
same,GI50,SK-MEL-28 melanoma,1830 nM
same,TGI,SK-MEL-28 melanoma,3250 nM
same,GI50,NCI-H23 lung,1690 nM
same,TGI,NCI-H23 lung,3150 nM
same,GI50,HCT-116 colon,1500 nM
same,TGI,HCT-116 colon,2920 nM
same,GI50,COLO 205 colon,1770 nM
same,TGI,COLO 205 colon,3780 nM
same,GI50,SW-620 colon,1480 nM
same,TGI,SW-620 colon,2850 nM
same,GI50,ACHN renal,1490 nM
same,TGI,ACHN renal,2810 nM
same,GI50,SF-268 CNS,1470 nM
same,TGI,SF-268 CNS,2990 nM
same,GI50,KM12 colon,1630 nM
same,TGI,KM12 colon,3100 nM
same,GI50,CAKI-1 renal,1480 nM
same,TGI,CAKI-1 renal,2800 nM
same,GI50,PC-3 prostate,1640 nM
same,TGI,PC-3 prostate,3250 nM
C#CC[C@@H]1C[C@]2(C)[C@H]3CC[C@@H]4[C@H]5C(C(=C)C)CC[C@]5(C(=O)NCCCCN)CC[C@@]4(C)[C@]3(C)CC[C@H]2C(C)(C)[C@H]1OC(C)=O (stereo not given in full),GI50,EKVX NSCLC,1840 nM
same,TGI,EKVX NSCLC,3780 nM
same,GI50,HCT-15 colon,1730 nM
same,TGI,HCT-15 colon,3450 nM
same,GI50,HS 578T breast,1820 nM
same,TGI,HS 578T breast,3810 nM
same,GI50,SNB-75 CNS,1410 nM
same,TGI,SNB-75 CNS,2780 nM
same,GI50,SK-MEL-5 melanoma,1800 nM
same,TGI,SK-MEL-5 melanoma,3270 nM
same,GI50,HT29 colon,1900 nM
same,TGI,HT29 colon,4040 nM
same,GI50,MCF7 breast,1670 nM
same,TGI,MCF7 breast,3860 nM
same,GI50,U251 CNS,1810 nM
same,TGI,U251 CNS,3510 nM
same,GI50,OVCAR-8 ovarian,2210 nM
same,TGI,OVCAR-8 ovarian,5340 nM
same,GI50,SK-MEL-2 melanoma,1710 nM
same,TGI,SK-MEL-2 melanoma,3400 nM
same,GI50,UACC-62 melanoma,1820 nM
same,TGI,UACC-62 melanoma,3260 nM
same,GI50,UO-31 renal,1560 nM
same,TGI,UO-31 renal,2950 nM
same,GI50,SN12C renal,1730 nM
same,TGI,SN12C renal,3340 nM
same,GI50,OVCAR-3 ovarian,1780 nM
same,TGI,OVCAR-3 ovarian,3330 nM
same,GI50,HOP-62 NSCLC,1910 nM
same,TGI,HOP-62 NSCLC,4070 nM
same,GI50,OVCAR-4 ovarian,1760 nM
same,TGI,OVCAR-4 ovarian,3330 nM
same,GI50,A498 renal,1780 nM
same,TGI,A498 renal,3190 nM
same,GI50,UACC-257 melanoma,1890 nM
same,TGI,UACC-257 melanoma,3770 nM
same,GI50,NCI-H226 lung,2030 nM
same,TGI,NCI-H226 lung,4840 nM
same,GI50,OVCAR-5 ovarian,1670 nM
same,TGI,OVCAR-5 ovarian,3060 nM
same,GI50,MALME-3M melanoma,1680 nM
same,TGI,MALME-3M melanoma,3330 nM
same,GI50,MDA-MB-231 breast,1790 nM
same,TGI,MDA-MB-231 breast,3450 nM
same,GI50,MDA-MB-435,1730 nM
same,TGI,MDA-MB-435,3190 nM
same,GI50,NCI-H460 lung,1910 nM
same,TGI,NCI-H460 lung,3710 nM
same,GI50,LOX IMVI melanoma,1560 nM
same,TGI,LOX IMVI melanoma,3000 nM
same,GI50,NCI-H522 lung,1800 nM
same,TGI,NCI-H522 lung,3670 nM
same,GI50,M14 melanoma,1770 nM
same,TGI,M14 melanoma,3460 nM
same,GI50,SF-539 CNS,1660 nM
same,TGI,SF-539 CNS,3110 nM
same,GI50,TK-10 renal,1860 nM
same,TGI,TK-10 renal,3480 nM
same,GI50,RXF 393 renal,1550 nM
same,TGI,RXF 393 renal,3140 nM
same,GI50,BT-549 breast,1760 nM
same,TGI,BT-549 breast,3340 nM
same,GI50,SF-295 CNS,1840 nM
same,TGI,SF-295 CNS,3410 nM
same,GI50,IGROV1 ovarian,1730 nM
same,TGI,IGROV1 ovarian,3350 nM
same,GI50,NCI/ADR-RES ovarian,1820 nM
same,TGI,NCI/ADR-RES ovarian,3980 nM
same,GI50,SK-OV-3 ovarian,1940 nM
same,TGI,SK-OV-3 ovarian,3540 nM
same,GI50,SK-MEL-28 melanoma,1760 nM
same,TGI,SK-MEL-28 melanoma,3250 nM
same,GI50,NCI-H23 lung,1850 nM
same,TGI,NCI-H23 lung,3530 nM
same,GI50,RPMI-8226 leukemia,2100 nM
same,TGI,RPMI-8226 leukemia,5060 nM
same,GI50,COLO 205 colon,1680 nM
same,TGI,COLO 205 colon,3300 nM
same,GI50,SW-620 colon,1830 nM
same,TGI,SW-620 colon,3740 nM
same,GI50,ACHN renal,1650 nM
same,TGI,ACHN renal,3010 nM
same,GI50,SF-268 CNS,1850 nM
same,TGI,SF-268 CNS,3930 nM
same,GI50,KM12 colon,1810 nM
same,TGI,KM12 colon,3360 nM
same,GI50,CAKI-1 renal,1600 nM
same,TGI,CAKI-1 renal,3070 nM
same,GI50,PC-3 prostate,1640 nM
same,TGI,PC-3 prostate,3170 nM
